# Source: patent US12139520B2 (priority 2020, dated 2024)
# Numbered stars: 1 amine (or outer) side, 2 acyl side, 3 side chain; on linkers, the order of the positions; unused ones are H or OH. Bridge positions count the residues as written; N and C are the ends. Square brackets hold non-standard residues; d marks the D form. Side chains are listed from the residue outwards. Peptide text beside a SMILES is read from it. * marks the point of attachment. C20 diacid = O=C(O)CCCCCCCCCCCCCCCCCCC(=O)*; γGlu = O=C(O)[C@H](CCC(=O)[*:2])N[*:1]; Hyp = O=C(O)[C@@H]1C[C@@H](O)CN1; AEEA = NCCOCCOCC(=O)O
# Key:
# hAMY3 receptor = target: T1, hAMY3 receptor (Homo sapiens, UniProt O60896+P30988); assay: cAMP assay for in vitro receptor activation, hAMY3-R; type: cell-based; details: cAMP assay, hAMY3 receptor; read-out: hAMY3R EC50
# T1 sequence (P30988 25-474): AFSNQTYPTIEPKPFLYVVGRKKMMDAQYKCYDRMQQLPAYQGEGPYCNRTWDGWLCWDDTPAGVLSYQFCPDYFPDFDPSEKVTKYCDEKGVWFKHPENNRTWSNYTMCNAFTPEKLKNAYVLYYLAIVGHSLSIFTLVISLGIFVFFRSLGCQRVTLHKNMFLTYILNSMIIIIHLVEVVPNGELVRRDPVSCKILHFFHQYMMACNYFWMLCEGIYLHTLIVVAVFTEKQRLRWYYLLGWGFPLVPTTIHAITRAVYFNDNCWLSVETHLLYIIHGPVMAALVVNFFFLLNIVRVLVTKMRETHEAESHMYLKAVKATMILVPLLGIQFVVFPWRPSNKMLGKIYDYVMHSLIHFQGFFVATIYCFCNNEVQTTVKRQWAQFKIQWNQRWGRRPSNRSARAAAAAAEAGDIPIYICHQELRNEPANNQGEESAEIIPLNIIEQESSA
# T1 sequence (O60896 24-148 partner): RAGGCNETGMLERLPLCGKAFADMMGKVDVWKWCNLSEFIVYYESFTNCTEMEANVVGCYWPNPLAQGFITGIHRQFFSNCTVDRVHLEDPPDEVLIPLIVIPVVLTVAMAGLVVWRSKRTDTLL
# In short: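 Monoclonal cell line stably overexpressing human AMY3 receptor, 2000 cells/well in DPBS with 0.05% casein and 0.5 mM IBMX. Stimulated 30 min at room temperature with graded compound doses, human amylin as positive control. cAMP accumulation read by TR-FRET after one hour.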
# hAM1 receptor = hAM1 receptor (Homo sapiens, UniProt O60895+Q16602); assay: cAMP assay for in vitro receptor activation, hAM1-R; type: cell-based; details: cAMP assay, hAM1 receptor; read-out: hAM1R EC50
# Chain of hAM1 receptor (Q16602 23-461): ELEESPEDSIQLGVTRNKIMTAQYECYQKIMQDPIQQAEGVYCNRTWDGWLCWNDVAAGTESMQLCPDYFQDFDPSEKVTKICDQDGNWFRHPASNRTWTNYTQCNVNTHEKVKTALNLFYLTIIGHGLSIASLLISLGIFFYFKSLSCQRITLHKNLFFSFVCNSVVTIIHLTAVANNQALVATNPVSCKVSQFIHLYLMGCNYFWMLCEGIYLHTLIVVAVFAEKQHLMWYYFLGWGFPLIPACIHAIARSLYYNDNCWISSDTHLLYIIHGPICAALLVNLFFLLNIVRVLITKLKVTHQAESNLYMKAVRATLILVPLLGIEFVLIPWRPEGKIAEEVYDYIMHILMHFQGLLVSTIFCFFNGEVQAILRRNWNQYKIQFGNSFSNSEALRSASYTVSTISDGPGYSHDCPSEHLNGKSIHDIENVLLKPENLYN
# Chain of hAM1 receptor (O60895 43-175 partner): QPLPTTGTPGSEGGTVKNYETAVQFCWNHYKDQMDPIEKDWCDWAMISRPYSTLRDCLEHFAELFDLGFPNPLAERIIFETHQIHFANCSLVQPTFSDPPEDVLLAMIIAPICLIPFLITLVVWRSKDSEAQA
# In short: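 Receptor activation, read as cAMP, was assessed in thawed cells of a monoclonal hAM1-overexpressing stable line, plated at 8000 cells/well in DPBS supplemented with 0.05% casein and 0.5 mM IBMX.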
EC50 (hAMY3 receptor) [nM],EC50 (hAM1 receptor) [µM],Compound
0.016,> 5,CC[C@H](C)[C@H](NC(=O)[C@H](CCC(N)=O)NC(=O)[C@H](Cc1c[nH]cn1)NC(=O)[C@H](C)NC(=O)[C@H](CC(C)C)NC(=O)[C@H](CCCNC(=N)N)NC(=O)[C@H](CCC(N)=O)NC(=O)[C@@H](NC(=O)[C@@H](NC(=O)[C@@H]1CSSC[C@H](NC(=O)[C@H](CCCCN)NC(=O)CC[C@H](NC(=O)CCCCCCCCCCCCCCCCCCC(=O)O)C(=O)O)C(=O)N[C@@H](CC(N)=O)C(=O)N[C@@H]([C@@H](C)O)C(=O)N[C@@H](C)C(=O)N[C@@H]([C@@H](C)O)C(=O)N1)[C@@H](C)O)C(C)C)C(=O)N[C@@H](C)C(=O)N[C@@H](CCC(N)=O)C(=O)N[C@@H](Cc1ccccc1)C(=O)N[C@@H](Cc1ccc(O)cc1)C(=O)N[C@@H](CC(=O)O)C(=O)N[C@@H](CCCCN)C(=O)N[C@@H](CC(=O)O)C(=O)N[C@@H](CCCCN)C(=O)N[C@@H](CC(=O)O)C(=O)N[C@@H](CC(N)=O)C(=O)N[C@H](C(=O)N[C@@H](C)C(=O)N1CCC[C@H]1C(=O)N1CCC[C@H]1C(=O)N[C@H](C(=O)N[C@@H](CC(N)=O)C(=O)N[C@H](C(=O)NCC(=O)N[C@@H](CO)C(=O)N[C@@H](CC(N)=O)C(=O)NCC(=O)N1C[C@H](O)C[C@H]1C(N)=O)C(C)C)[C@@H](C)O)C(C)C [compound 94] ({C20 diacid-γGlu}-KCNTATCTVQRLAHQIAQFYDKDKDNVAPPTNVGSNG[Hyp]-NH2; disulfide 2-7)
0.013,> 5,CC[C@H](C)[C@H](NC(=O)[C@H](CCC(N)=O)NC(=O)[C@H](CCCCNC(=O)COCCOCCNC(=O)COCCOCCNC(=O)CC[C@H](NC(=O)CCCCCCCCCCCCCCCCCCC(=O)O)C(=O)O)NC(=O)[C@H](C)NC(=O)[C@H](CC(C)C)NC(=O)[C@H](CCCNC(=N)N)NC(=O)[C@H](CCC(N)=O)NC(=O)[C@@H](NC(=O)[C@@H](NC(=O)[C@@H]1CSSC[C@H](NC(=O)[C@@H](N)CCCCN)C(=O)N[C@@H](CC(N)=O)C(=O)N[C@@H]([C@@H](C)O)C(=O)N[C@@H](C)C(=O)N[C@@H]([C@@H](C)O)C(=O)N1)[C@@H](C)O)C(C)C)C(=O)N[C@@H](Cc1ccc(O)cc1)C(=O)N[C@@H](CCC(N)=O)C(=O)N[C@@H](Cc1ccccc1)C(=O)N[C@H](C(=O)N[C@@H](CC(=O)O)C(=O)N[C@@H](CCCCN)C(=O)N[C@@H](CC(=O)O)C(=O)N[C@@H](CCCCN)C(=O)N[C@@H](CC(=O)O)C(=O)N[C@@H](CC(N)=O)C(=O)N[C@H](C(=O)N[C@@H](C)C(=O)N1CCC[C@H]1C(=O)N1CCC[C@H]1C(=O)N[C@H](C(=O)N[C@@H](CC(N)=O)C(=O)N[C@H](C(=O)NCC(=O)N[C@@H](CO)C(=O)N[C@@H](CC(N)=O)C(=O)NCC(=O)N1C[C@H](O)C[C@H]1C(N)=O)C(C)C)[C@@H](C)O)C(C)C)[C@@H](C)O [compound 74] (H-KCNTATCTVQRLAK([AEEA-AEEA-γGlu-C20 diacid])QIYQFTDKDKDNVAPPTNVGSNG[Hyp]-NH2; disulfide 2-7; N-terminus assumed)
